Source: patent US20170143712A1, “Methods of Treating Cancers, Immune and Autoimmune Diseases, and Inflammatory Diseases Based on BTK Occupancy and BTK Resynthesis Rate” (Acerta Pharma B.V., priority 2014, published 2017)
Entries after “also recorded” stand apart in the source; their conditions may differ. Where two headings read alike, the source gives them in different places.

Assays:
[1] = system: BCR signaling through BTK; test: Anti-IgM induced CD86 and CD69 on splenocyte B cells of CIA mice; assay type: in vivo, mouse; conditions: splenocytes 3 hr after last dosing on day 14
Method: (§1) FIG. 45 illustrates changes in a functional measure of BCR signalling through the CD86 marker. Mouse splenocytes were isolated from spleens from mice that were part of the mouse CIA study semi-therapeutic protocol, 3 hr after the last dosing on day 14 of the treatment and cryopreserved. After thawing, inhibition of anti-IgM-induced PD markers CD86 and CD69 on mouse splenocyte B cells were measured. Error bars represent the standard deviation for the 3 sets of splenocytes analyzed.
as §1, with “FIG. 46” for “FIG. 45”, “the CD69” for “the CD86”
Inhibition of the BCR signaling through BTK was evaluated by ex vivo stimulation of splenocytes using IgM and evaluation of CD86 and CD69 as functional responses of BCR stimulation.

BTK [2] = molecular target: T1, BTK (Homo sapiens, UniProt Q06187); test: BTK occupancy in PBMCs / peripheral blood B lymphocytes of healthy volunteers (active-site probe ELISA); assay type: in vivo; conditions: for receptor occupancy at 15 mg: human
T1 sequence (Q06187 whole entry): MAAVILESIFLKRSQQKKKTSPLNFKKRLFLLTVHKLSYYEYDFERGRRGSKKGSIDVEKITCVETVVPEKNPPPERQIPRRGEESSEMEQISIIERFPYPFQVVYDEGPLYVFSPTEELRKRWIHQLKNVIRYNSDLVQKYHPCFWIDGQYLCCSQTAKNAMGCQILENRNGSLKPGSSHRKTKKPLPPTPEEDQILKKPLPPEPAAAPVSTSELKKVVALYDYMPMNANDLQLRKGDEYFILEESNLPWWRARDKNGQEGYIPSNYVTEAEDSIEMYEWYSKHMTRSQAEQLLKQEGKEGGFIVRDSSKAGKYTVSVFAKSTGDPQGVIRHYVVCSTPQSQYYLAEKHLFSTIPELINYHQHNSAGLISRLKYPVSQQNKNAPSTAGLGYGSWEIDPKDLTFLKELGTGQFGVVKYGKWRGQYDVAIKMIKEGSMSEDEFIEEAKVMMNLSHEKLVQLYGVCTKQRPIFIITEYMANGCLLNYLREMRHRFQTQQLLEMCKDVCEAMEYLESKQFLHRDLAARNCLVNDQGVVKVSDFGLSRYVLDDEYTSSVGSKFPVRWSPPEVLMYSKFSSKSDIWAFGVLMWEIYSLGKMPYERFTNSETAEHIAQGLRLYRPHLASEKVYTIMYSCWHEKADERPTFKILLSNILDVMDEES
Method: The presence of inactivated BTK in peripheral blood B lymphocytes was measured using a BTK active-site specific probe in an ELISA assay and expressed as a percentage of pre-study levels.
A Phase 1, single-center, open-label, single-treatment study in healthy volunteers was conducted to assess the BTK occupancy of Formula (II) after multiple-dose administration in healthy adult subjects under fasting conditions. The study primarily focused on characterizing the pharmacodynamics (PD) of Formula (II) by assessing the BTK occupancy profile of Formula (II) in peripheral blood mononuclear cells (PBMCs) and by measuring the expression of lymphocyte B activation markers, CD69 and CD86, during and after multiple oral dose administration of 15 mg daily in healthy subjects. As a secondary objective, the study evaluated the pharmacokinetic (PK) profile, safety, and tolerability after multiple-dose administrations of Formula (II) in the healthy subjects. Moreover, the study determined the effects of Formula (II) on peripheral blood T cells and myeloid-derived suppressor cells (MDSCs).
Forty, healthy adult, non-tobacco using men and women were enrolled in the study. A 15 mg Formula (II) dose (1×15 mg capsule) was administered once daily (QD) to each subject for 7 consecutive days (Days 1 to 7) with a washout period (6 days). PD blood samples were collected from each subject before dosing on Day 1, throughout the study, and up to 144 hours after dosing on Day 7 to characterize Formula (II) PD effects. PK sampling for Formula (II) was also collected before dosing on Day 1, throughout the study, and for 24 hours after dosing on Day 7. Additionally, potential Formula (II) safety issues were monitored through physical examination, vital sign measurements, 12 lead electrocardiograms (ECGs), AEs and clinical laboratory tests.
The occupancy of BTK by Formula (II) was measured in PBMCs with the aid of a biotin tagged Formula (II) analogue probe. The effect of Formula (II) on functional activation of B cells following BCR stimulation (measured via the phorphorylation of BTK and upregulation of CD69 and CD86 activation markers) was also evaluated.

S6 phosphorylation = test: Basal and anti-IgM induced S6 phosphorylation in splenocytes after oral dosing of mice; assay type: in vivo, mouse; conditions: single oral 25 mg/kg; rank order Formula (II)>ibrutinib>Formula (XVII)
Method: B cell stimulation through the B cell receptor (BCR) with antibodies (e.g., anti-IgM) results in the activation of BTK and subsequent cellular changes, including the upregulation of various cell surface receptors. Measuring the inhibition of BCR induced protein phosphorylation downstream of Btk, and the inhibition of surface receptor upregulation provides a way to assess the Btk inhibitor activity. In the first study, the BTK target occupancy in splenocytes was measured over time, providing evidence for BTK resynthesis in the tissue compartment of interest.
Mice were sacrificed at 3, 6, 12, 18, and 24 hours after treatment with the BTK inhibitors (FIG. 27A, FIG. 27B, and FIG. 27C). Spleens were harvested and splenocyte preparations were made for flow cytometry analysis of B cell functions. Fresh or cryopreserved splenocytes were cultured with a-IgM to stimulate BCR, and the up-regulation of CD69, an early functional marker of B cell activation, was analyzed by flow cytometry.
A downstream marker of BTK activity, S6 phosphorylation, was also monitored in this study. […] In a second study, the effects of another inhibitor of BTK that covalently inactivates the kinase, Formula (XXI), were compared with Formula (II) to evaluate the return of BCR function and B cell activation, as illustrated in FIG. 29A and FIG. 29B.

BTK [3] = molecular target: T1, BTK; test: p-BTK after ex vivo BCR stimulation in CD19+/CD5+ CLL tumor cells (phospho-flow cytometry); conditions: CLL patients on oral treatment
BTK [4] = molecular target: T2, BTK (Canis lupus familiaris, UniProt A0A8I3P3Z9); test: BTK target occupancy in peripheral B-cells and lymph node fine needle aspirates of dogs with spontaneous lymphoma; assay type: in vivo, dog
T2 construct: Purified peripheral B-cells and FNA samples were snap-frozen for measurement of BTK target occupancy; from tissue; host or cells: peripheral blood CD21+ B cells and lymph node fine needle aspirates of companion dogs with spontaneous lymphoma, dosed in vivo
T2 sequence (A0A8I3P3Z9 1-664): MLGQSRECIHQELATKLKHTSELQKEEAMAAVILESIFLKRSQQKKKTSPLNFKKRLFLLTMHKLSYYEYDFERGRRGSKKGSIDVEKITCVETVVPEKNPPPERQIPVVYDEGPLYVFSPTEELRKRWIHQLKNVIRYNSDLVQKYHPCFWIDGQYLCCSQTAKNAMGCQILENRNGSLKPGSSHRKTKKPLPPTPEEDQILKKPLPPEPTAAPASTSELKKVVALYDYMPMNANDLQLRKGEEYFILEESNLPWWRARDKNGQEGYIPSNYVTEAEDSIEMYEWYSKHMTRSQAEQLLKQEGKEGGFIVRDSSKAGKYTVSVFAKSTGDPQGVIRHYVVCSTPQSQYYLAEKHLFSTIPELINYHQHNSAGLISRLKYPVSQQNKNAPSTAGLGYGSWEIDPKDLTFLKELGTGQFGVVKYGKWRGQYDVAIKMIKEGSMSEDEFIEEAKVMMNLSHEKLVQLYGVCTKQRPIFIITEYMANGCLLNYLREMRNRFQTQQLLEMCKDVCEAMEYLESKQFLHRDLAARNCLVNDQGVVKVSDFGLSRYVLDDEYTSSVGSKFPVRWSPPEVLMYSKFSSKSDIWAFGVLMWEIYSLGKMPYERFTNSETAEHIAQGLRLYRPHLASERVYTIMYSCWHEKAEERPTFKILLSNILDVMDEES
Method: Dogs were administered Formula (II) orally once daily and evaluations occurred every 7 days for the first 4 weeks of the study, then every 14 days thereafter. PBMCs and lymph node fine needle aspirates (lymphoma patients only) were obtained for PD analysis on day 0 at time 0 hr and 3 hr, and again at pre-dose (Cmin) on day 7 of drug administration. In each cohort, PK analysis was performed in 2 dogs on day 14 of the study consisting of blood sampling at 0, 0.5, 1, 2, 3, 4, 6, 8, 12, and 24 hr following drug administration.
Peripheral blood mononuclear cells (PBMCs) were isolated from blood and the CD21+ B-cells were enriched by positive magnetic selection. For fine needle aspiration (FNA) samples, erythrocytes were lysed with ammonium chloride lysis buffer. Purified peripheral B-cells and FNA samples were snap-frozen for measurement of BTK target occupancy. BTK target occupancy was measured using an ELISA with anti-BTK as a capture antibody and a biotinylated active site probe for BTK, followed by streptavidin-HRP as a detection reagent. The ex vivo incubation with Formula (II) provided a baseline signal for each sample. BTK occupancy in the B cell lysates from peripheral B-cells and lymph node FNA preparations was calculated as a percentage of the control after correction for baseline chemoluminescence. All samples were run in quadruplicate.

[5] = 3 hr after administration, all cohorts

`CC#CC(=O)N1CCC[C@H]1c1nc(-c2ccc(C(=O)Nc3ccccn3)cc2)c2c(N)nccn12` [Formula (II), (S)-4-(8-amino-3-(1-(but-2-ynoyl)pyrrolidin-2-yl)imidazo[1,5-a]pyrazin-1-yl)-N-(pyridin-2-yl)benzamide] was tested, and the “BCR-mediated signaling (anti-IgM induced CD86 and CD69)” value [1] was “dose-responsive decreases in BCR-mediated signaling”, the “estimated half-life of occupied BTK (BTK resynthesis t1/2)” value (BTK [2]; 15 mg QD, Days 1 and 2, initial post-dose rate) was 20 h and the “modeled rate of BTK resynthesis (t1/2)” value (BTK [2]; after 7 days dosing with 15 mg, and after a 25 mg BID dose) was 119 h. For the same compound, the “estimated half-life of occupied BTK (BTK resynthesis t1/2)” value (BTK [2]; after discontinuation of 15 mg QD x 7 days at steady state, later rate) was 119 h, the “modeled rate of BTK resynthesis (t1/2)” value (BTK [2]; early doses of 15 mg QD, or a single 25 mg QD dose) was 20 h and the receptor occupancy at 15 mg (BTK [2]; 15 mg QD for 7 days, read-out: peak BTK occupancy at steady state) was greater than 90%. The receptor occupancy at 15 mg (BTK [2]; 15 mg QD, Days 1 and 2, read-out: BTK target occupancy at the end of the dosing interval) was roughly 60%, the “basal state and anti-IgM induced S6 phosphorylation” value (S6 phosphorylation) was “inhibited both basal state and anti-IgM induced S6 phosphorylation” and the “BCR-mediated signaling through BTK (p-BTK after ex vivo BCR stimulation)” value (BTK [3]) was “significantly inhibited; also recorded: decreased BTK activation”. For the same compound, the “BTK occupancy in lymph node FNAs” value (BTK [4]; [5]) was greater than 90%, the “BTK occupancy in peripheral B-cells” value (BTK [4]; [5]) was no less than 90% and the “BTK occupancy in peripheral blood sample” value (BTK [4]; day 7 pre-dose, steady state (24 hr QD or 12 hr BID after dose)) was “Full BTK occupancy”. For the same compound, the “BTK occupancy in tumor bearing lymph nodes” value (BTK [4]; pre-dose Day 7) was 82-88%.
